Assays:
[1] = target: T1, S1P1 (Homo sapiens (Human), UniProt P21453); assay: Receptor binding assay, [33P]sphingosine 1-phosphate, membranes from CHO cells expressing S1P1; conditions: CHO cell membranes, 25 pM [33P]sphingosine 1-phosphate
Description: (§1) Receptor binding assay: Membranes were prepared from CHO cells expressing S1P1 or S1P3 for use in ligand and […] binding studies. Cells were suspended in 50 mM TRIS, pH 7.4, 2 mM EDTA, 250 mM Sucrose (buffer A) and 1× Complete protease inhibitor cocktail (Roche), and disrupted at 4° C. by N2 decompression using a cell disruption bomb (Parr Instrument). Following centrifugation at 1000 RPM for 10 min at 4° C., the supernatant was suspended in buffer A and centrifuged again at 19000 RPM for 60 min at 4° C. The pellet was then suspended in 10 mM HEPES, pH 7.4, 1 mM EDTA, 250 mM Sucrose (Buffer B), and 1× Complete EDTA-free protease inhibitor cocktail and homogenized using a potter. Membranes were flash frozen in liquid N2 and stored at −80° C. [33P]sphingosine 1-phosphate (3000 Ci/mmol; American Radiolabeled Chemicals, Inc.) was added to test compounds in DMSO. Membranes and WGA SPA beads (GE Healthcare) were added to give a final volume of 100 μl in 96-well plates with assay concentrations of 25 pM or 10 pM [33P]sphingosine 1-phosphate (respectively for S1P1 or S1P3), 50 mM HEPES, pH 7.5, 5 mM MgCl2, 100 mM NaCl, 0.4% fatty acid-free BSA, 1-5 μg/well of proteins and 100 μg/well of WGA SPA beads. Binding was performed for 60 min at RT on a shaker and bound radioactivity was measured on a PerkinElmer 1450 MicroBeta counter. Specific binding was calculated by subtracting remaining radioactivity in the presence of 1000-fold excess of unlabeled SIP. Binding data were analyzed using the GraphPad Prism program.

[2] = target: T1, S1P1; assay: 35S-GTPγS binding, membranes from CHO cells expressing S1P1; format: biochemical; conditions: CHO cell membranes
[3] = target: S1P3 (Homo sapiens (Human), UniProt Q99500); assay: 35S-GTPγS binding, membranes from CHO cells expressing S1P3; format: biochemical; conditions: CHO cell membranes
Sequence of S1P3 (Q99500 whole entry, species assumed): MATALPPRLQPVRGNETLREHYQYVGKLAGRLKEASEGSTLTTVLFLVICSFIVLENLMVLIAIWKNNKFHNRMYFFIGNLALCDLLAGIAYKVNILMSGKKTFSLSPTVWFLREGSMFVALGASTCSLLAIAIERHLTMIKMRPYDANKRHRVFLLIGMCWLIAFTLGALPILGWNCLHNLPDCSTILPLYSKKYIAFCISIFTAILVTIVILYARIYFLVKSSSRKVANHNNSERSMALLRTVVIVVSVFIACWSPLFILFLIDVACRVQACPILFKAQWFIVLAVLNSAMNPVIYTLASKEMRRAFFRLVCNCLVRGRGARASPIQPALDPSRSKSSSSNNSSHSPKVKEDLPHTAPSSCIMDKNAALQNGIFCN
Description: as §1
Measurements of 35S-GTPγS Binding: Membranes (1 to 10 μg protein) prepared as described above, were incubated in 96-well Scintiplates (PerkinElmer) with test compounds diluted in DMSO, in 180 μl of 20 mM HEPES, pH 7.4, 10 mM MgCl2, 2 μg/well Saponin, 0.2% fatty acid free BSA (Assay buffer), 140 mM NaCl and 1.7 μM GDP. The assay was initiated with the addition of 20 μl of 1.5 nM [35S]-GTPγS (1100 Ci/mmol; GE Healthcare) in assay buffer. After 60 min incubation at 30° C. on a shaker, plates were centrifuged for 10 min at 2000 RPM. Supernatant was discarded and membrane bound radioactivity was measured on a PerkinElmer 1450 MicroBeta counter. Triplicate samples were averaged and expressed as % response relative to S1P activation in absence of compound (n=2).

T1 sequence (P21453 whole entry, species assumed): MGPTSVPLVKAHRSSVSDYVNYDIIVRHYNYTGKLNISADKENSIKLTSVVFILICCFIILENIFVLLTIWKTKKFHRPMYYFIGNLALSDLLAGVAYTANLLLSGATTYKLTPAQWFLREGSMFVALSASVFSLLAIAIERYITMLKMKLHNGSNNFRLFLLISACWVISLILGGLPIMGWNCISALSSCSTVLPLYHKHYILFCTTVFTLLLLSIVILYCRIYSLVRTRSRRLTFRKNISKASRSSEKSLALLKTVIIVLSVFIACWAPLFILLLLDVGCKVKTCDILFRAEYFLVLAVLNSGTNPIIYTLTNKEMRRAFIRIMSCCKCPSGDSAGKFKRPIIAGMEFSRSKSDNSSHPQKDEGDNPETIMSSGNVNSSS

Row | Ki [1] [nM] | EC50 [2] [nM] | EC50 [3] [nM] | Compound
1 | 5 | 4 |  | Fc1ccc(F)c(-c2noc(-c3cnn(C4CCCCC4)c3-c3ccncc3)n2)c1 [Example 23, 5-(1-cyclohexyl-5-(pyridin-4-yl)-1H-pyrazol-4-yl)-3-(2,5-difluorophenyl)-1,2,4-oxadiazole]
2 |  | 16 | 2660 | FC(F)(F)c1cccc(-c2noc(-c3cnn(C4CCCCC4)c3-c3ccncc3)n2)c1 [Example 28, 4-(1-cyclohexyl-4-{3-[3-(trifluoromethyl)phenyl]-1,2,4-oxadiazol-5-yl}-1H-pyrazol-5-yl)pyridine]
3 |  | 6 | 1610 | CC1CCCCC1n1ncc(-c2nc(-c3cc(F)ccc3F)no2)c1-c1ccncc1 (stereo not drawn) [Example 34, 4-[4-[3-(2,5-difluorophenyl)-1,2,4-oxadiazol-5-yl]-1-(2-methylcyclohexyl)-1H-pyrazol-5-yl]pyridine]
4 |  | 9 | 486 | CN(C)Cc1ccc(-c2noc(-c3cnn(C4CCCCC4)c3-c3ccncc3)n2)cc1 [Example 41, 1-{4-[5-(1-cyclohexyl-5-pyridin-4-yl-1H-pyrazol-4-yl)-1,2,4-oxadiazol-3-yl]phenyl}-N,N-dimethylmethanamine]
5 |  | 1 | 1020 | O=C(O)C1CN(Cc2ccc(-c3noc(-c4cnn(C5CCCCC5)c4-c4ccncc4)n3)cc2)C1 [Example 42, 1-{4-[5-(1-cyclohexyl-5-pyridin-4-yl-1H-pyrazol-4-yl)-1,2,4-oxadiazol-3-yl]benzyl}azetidine-3-carboxylic acid]
6 |  | 12 | 1640 | CC(C)Cn1ncc(-c2nc(-c3ccc(CNCCC(=O)O)cc3)no2)c1-c1ccncc1 [Example 89, 3-(4-(5-(1-isobutyl-5-(pyridin-4-yl)-1H-pyrazol-4-yl)-1,2,4-oxadiazol-3-yl)benzylamino)propanoic acid]
7 | 34 | 42 |  | CC(C)(C)Cn1ncc(-c2nc(-c3ccc(CN4CC(C(=O)O)C4)cc3)no2)c1-c1ccncc1 [Example 105, 1-(4-(5-(1-neopentyl-5-(pyridin-4-yl)-1H-pyrazol-4-yl)-1,2,4-oxadiazol-3-yl)benzyl)azetidine-3-carboxylic acid]
8 |  |  | 58.3 | c1cc(-c2c(-c3nc(-c4ccc(Cn5ccnc5)cc4)no3)cnn2C2CCCCC2)ccn1 [Example 136, 4-{2-Cyclohexyl-4-[3-(4-imidazol-1-ylmethyl-phenyl)-[1,2,4]oxadiazol-5-yl]-2H-pyrazol-3-yl}-pyridine]
9 | 3.4 |  |  | c1cc(-c2c(-c3nc(-c4ccc(Cn5ncnn5)cc4)no3)cnn2C2CCCCC2)ccn1 [Example 150]
10 | 4.6 |  |  | c1cc(-c2c(-c3nc(-c4ccc(CCn5cncn5)cc4)no3)cnn2C2CCCCC2)ccn1 [Example 151]
11 | 3.3 |  |  | N#CCc1ccc(-c2noc(-c3cnn(C4CCCCC4)c3-c3ccncc3)n2)cc1 [Example 152]
12 | 28 |  |  | O=C(O)c1cnn(Cc2ccc(-c3noc(-c4cnn(C5CCCCC5)c4-c4ccncc4)n3)cc2)c1 [Example 153]
13 | 76 |  |  | c1cc(-c2c(-c3nc(-c4ccc(Cc5nnn[nH]5)cc4)no3)cnn2C2CCCCC2)ccn1 [Example 154]
14 | 6 |  |  | c1cc(-c2c(-c3nc(-c4ccc(Cn5cnnn5)cc4)no3)cnn2C2CCCCC2)ccn1 [Example 155]

The remaining lines, values behind:

Row | Compound | Ki [1] [nM] | EC50 [2] [nM] | EC50 [3] [nM]
15 | 4-[4-[3-(2,5-difluorophenyl)-1,2,4-oxadiazol-5-yl]-1-(2-fluorophenyl)-1H-pyrazol-5-yl]pyridine [Example 8] | 3 | 3 | 
16 | Fc1ccc(F)c(-c2noc(-c3cnn(-c4ccccc4)c3-c3ccccc3)n2)c1 [Example 3, 3-(2,5-difluorophenyl)-5-(1,5-diphenyl-1H-pyrazol-4-yl)-1,2,4-oxadiazole] | 8 | 77 | 
17 | Cc1ccccc1-n1ncc(-c2nc(-c3cc(F)ccc3F)no2)c1-c1ccccc1 [Example 5, 3-(2,5-difluorophenyl)-5-(5-phenyl-1-o-tolyl-1H-pyrazol-4-yl)-1,2,4-oxadiazole] | 13 | 255 | 
18 | Fc1ccc(-n2ncc(-c3nc(-c4cc(F)ccc4F)no3)c2-c2ccccc2)cc1 [Example 6, 3-(2,5-difluorophenyl)-5-(1-(4-fluorophenyl)-5-phenyl-1H-pyrazol-4-yl)-1,2,4-oxadiazole] | 13 | 235 | 
19 | CC(C)Cn1ncc(-c2nc(-c3cc(F)ccc3F)no2)c1-c1ccccc1 [Example 12, 3-(2,5-difluorophenyl)-5-(1-isobutyl-5-phenyl-1H-pyrazol-4-yl)-1,2,4-oxadiazole] | 7 | 36 | 
20 | CCOC(=O)Cn1ncc(-c2nc(-c3cc(F)ccc3F)no2)c1-c1ccccc1 [Example 13, ethyl {4-[3-(2,5-difluorophenyl)-1,2,4-oxadiazol-5-yl]-5-phenyl-1H-pyrazol-1-yl}acetate] | 23 | 96 | 
21 | CC(C)Cn1ncc(-c2nc(-c3cc(F)ccc3F)no2)c1-c1ccncc1 [Example 19, 4-{4-[3-(2,5-difluorophenyl)-1,2,4-oxadiazol-5-yl]-1-isobutyl-1H-pyrazol-5-yl}pyridine] | 9 | 18 | 
22 | Fc1ccc(F)c(-c2noc(-c3cnn(C4CCCCC4)c3C3CCOCC3)n2)c1 [Example 31, 5-[1-cyclohexyl-5-(tetrahydro-2H-pyran-4-yl)-1H-pyrazol-4-yl]-3-(2,5-difluorophenyl)-1,2,4-oxadiazole] |  | 12 | > 20000
23 | CC(C)Cn1ncc(-c2nc(-c3cccc(C(F)(F)F)c3)no2)c1-c1ccncc1 [Example 37, 4-(1-isobutyl-4-{3-[3-(trifluoromethyl)phenyl]-1,2,4-oxadiazol-5-yl}-1H-pyrazol-5-yl)pyridine] |  | 9 | > 20000
24 | CC(C)Cn1ncc(-c2nc(-c3ccc4[nH]ncc4c3)no2)c1-c1ccncc1 [Example 40, 5-[5-(1-isobutyl-5-pyridin-4-yl-1H-pyrazol-4-yl)-1,2,4-oxadiazol-3-yl]-1H-indazole] |  | 11 | 523
25 | C[C@@H]1CCCC[C@@H]1n1ncc(-c2nc(-c3cc(F)ccc3F)no2)c1-c1ccccc1 [Example 47, 3-(2,5-difluorophenyl)-5-{1[(1S,2R)-2-methylcyclohexyl]-5-phenyl-1H-pyrazol-4-yl}-1,2,4-oxadiazole] |  | 8 | 571
26 | COCc1c(-c2nc(-c3cccc(COCCC(=O)O)c3)no2)cnn1C1CCCCC1 [Example 141] | 180 |  | 
27 | COCc1c(-c2nc(-c3cccc(/C=C/C(=O)O)c3)no2)cnn1C1CCCCC1 [Example 142] | 191 |  | 
28 | COCc1c(-c2nc(-c3cccc(COCC(=O)O)c3)no2)cnn1C1CCCCC1 [Example 143] | 41.5 |  | 
29 | COCc1c(-c2nc(-c3cccc(OCCCC(=O)O)c3)no2)cnn1C1CCCCC1 [Example 144] | 31 |  | 
30 | COCc1c(-c2nc(-c3cccc(CCC(=O)O)c3)no2)cnn1C1CCCCC1 [Example 145] | 116 |  | 
31 | COCc1c(-c2nc(-c3ccc(C(=O)NCCC(=O)O)cc3)no2)cnn1C1CCCCC1 [Example 146] | 9.9 |  | 
32 | COCc1c(-c2nc(-c3cccc(C(=O)NCCC(=O)O)c3)no2)cnn1C1CCCCC1 [Example 147] | 257 |  | 
33 | c1cnn(Cc2ccc(-c3noc(-c4cnn(C5CCCCC5)c4-c4ccncc4)n3)cc2)c1 [Example 149] | 5.2 |  | 
